“And” between values parts separate entries of the source, which are not always exact repeats. Equal values may be shown once. Read-outs that look alike come from different tables or passages of the source.
Tests used:
[1] = target: T1, Human recombinant PDE2A (hPDE2A) (Homo sapiens, UniProt O00408); assay: In vitro assay PDE2A (SPA, 3H-cGMP hydrolysis); assay type: biochemical; conditions: for Emax: read-out: hPDE2A Emax
T1 construct: His tag (inferred from metal chelate purification); made in house; host or cells: Sf9 insect cells (baculovirus)
T1 sequence (O00408 whole entry): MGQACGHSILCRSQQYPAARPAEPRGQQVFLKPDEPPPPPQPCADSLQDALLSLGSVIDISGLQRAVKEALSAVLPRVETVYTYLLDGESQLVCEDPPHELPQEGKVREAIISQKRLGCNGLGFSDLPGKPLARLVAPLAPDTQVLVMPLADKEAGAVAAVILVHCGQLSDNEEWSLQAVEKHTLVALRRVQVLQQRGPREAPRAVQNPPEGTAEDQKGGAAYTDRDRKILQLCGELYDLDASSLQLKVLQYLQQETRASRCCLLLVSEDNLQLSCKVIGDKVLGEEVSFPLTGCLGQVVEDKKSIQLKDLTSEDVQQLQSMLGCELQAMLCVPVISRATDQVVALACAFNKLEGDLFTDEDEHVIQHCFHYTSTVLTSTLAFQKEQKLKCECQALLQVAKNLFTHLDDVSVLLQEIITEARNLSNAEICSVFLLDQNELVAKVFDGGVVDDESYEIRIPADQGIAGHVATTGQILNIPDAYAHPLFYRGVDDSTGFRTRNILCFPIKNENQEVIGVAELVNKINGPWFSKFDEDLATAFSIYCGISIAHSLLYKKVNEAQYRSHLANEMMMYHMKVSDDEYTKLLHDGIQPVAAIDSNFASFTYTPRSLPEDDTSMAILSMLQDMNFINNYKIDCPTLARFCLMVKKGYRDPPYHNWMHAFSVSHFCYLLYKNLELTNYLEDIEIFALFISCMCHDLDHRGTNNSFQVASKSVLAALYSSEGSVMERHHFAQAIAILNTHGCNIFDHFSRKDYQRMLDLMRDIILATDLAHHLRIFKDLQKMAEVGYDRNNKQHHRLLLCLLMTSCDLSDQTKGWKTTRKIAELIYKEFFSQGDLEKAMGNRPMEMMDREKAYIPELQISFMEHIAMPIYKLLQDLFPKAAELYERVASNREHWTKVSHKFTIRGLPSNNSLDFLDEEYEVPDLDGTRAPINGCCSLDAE

[2] = target: T2, Human recombinant PDE3A (hPDE3A) (Homo sapiens, UniProt Q14432); assay: In vitro assay PDE3A (SPA, 3H-cAMP hydrolysis); assay type: biochemical; conditions: for IC50: hPDE3B pIC50, read-out: pIC50 (converted); for Emax: read-out: hPDE3B Emax, read-out: Emax;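 as to all read-outs here: the method names PDE3A and the table heading PDE3B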
T2 construct: purchased Scottish Biomedical; host or cells: Sf9 insect cells
T2 sequence (Q14432 whole entry): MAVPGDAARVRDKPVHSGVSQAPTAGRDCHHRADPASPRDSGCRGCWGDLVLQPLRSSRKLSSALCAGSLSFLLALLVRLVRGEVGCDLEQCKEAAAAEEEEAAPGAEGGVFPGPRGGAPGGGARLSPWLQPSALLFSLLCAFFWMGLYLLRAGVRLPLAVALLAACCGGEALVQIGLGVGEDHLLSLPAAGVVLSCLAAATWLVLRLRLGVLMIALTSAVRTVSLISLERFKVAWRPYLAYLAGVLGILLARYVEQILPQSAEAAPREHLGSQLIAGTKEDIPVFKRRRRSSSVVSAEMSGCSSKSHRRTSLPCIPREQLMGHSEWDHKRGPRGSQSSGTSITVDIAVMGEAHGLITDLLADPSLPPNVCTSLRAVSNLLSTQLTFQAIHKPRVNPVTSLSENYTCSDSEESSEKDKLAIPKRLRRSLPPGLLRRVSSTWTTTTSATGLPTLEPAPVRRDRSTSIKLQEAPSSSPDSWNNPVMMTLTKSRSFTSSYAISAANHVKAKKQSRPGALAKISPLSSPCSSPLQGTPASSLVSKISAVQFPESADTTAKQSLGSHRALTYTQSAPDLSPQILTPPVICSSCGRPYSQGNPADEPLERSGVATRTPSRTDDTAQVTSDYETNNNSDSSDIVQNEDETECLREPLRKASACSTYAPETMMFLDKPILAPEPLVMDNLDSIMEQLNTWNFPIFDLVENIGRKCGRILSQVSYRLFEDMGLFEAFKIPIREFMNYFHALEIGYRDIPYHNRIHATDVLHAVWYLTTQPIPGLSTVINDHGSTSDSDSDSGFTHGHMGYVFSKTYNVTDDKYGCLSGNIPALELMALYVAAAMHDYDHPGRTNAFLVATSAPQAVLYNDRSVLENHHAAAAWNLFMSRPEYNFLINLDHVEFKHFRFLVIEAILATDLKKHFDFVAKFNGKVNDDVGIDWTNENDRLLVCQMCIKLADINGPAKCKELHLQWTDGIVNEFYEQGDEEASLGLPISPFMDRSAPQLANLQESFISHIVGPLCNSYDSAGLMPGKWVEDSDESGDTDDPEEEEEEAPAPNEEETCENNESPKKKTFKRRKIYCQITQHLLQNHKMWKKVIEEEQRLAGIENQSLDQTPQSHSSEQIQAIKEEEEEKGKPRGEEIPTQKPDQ
Procedure, shortened: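 Radiometric SPA measuring [3H]-cAMP hydrolysis (0.4 μM cAMP, 2.4 μCi/ml) over 60 min at room temperature, in Tris pH 7.8 buffer with MgCl2 and EGTA, 1% DMSO. Enzyme: recombinant human brain PDE3A expressed in Sf9 cells, used as partially purified lysate. Counts compared with enzyme-free blanks and vehicle controls.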

[3] = target: T3, Human recombinant PDE10A (hPDE10A) (Homo sapiens, UniProt Q9Y233); assay: In vitro assay PDE10A, human clone (SPA, 3H-cAMP hydrolysis); assay type: biochemical; conditions: human clone (h), default; for Emax: read-out: hPDE10A2 Emax; for IC50: read-out: hPDE10A2 pIC50 (converted)
T3 construct: His tag (inferred from metal chelate purification); made in house; host or cells: Sf9 insect cells (baculovirus)
T3 sequence (Q9Y233 267-1055): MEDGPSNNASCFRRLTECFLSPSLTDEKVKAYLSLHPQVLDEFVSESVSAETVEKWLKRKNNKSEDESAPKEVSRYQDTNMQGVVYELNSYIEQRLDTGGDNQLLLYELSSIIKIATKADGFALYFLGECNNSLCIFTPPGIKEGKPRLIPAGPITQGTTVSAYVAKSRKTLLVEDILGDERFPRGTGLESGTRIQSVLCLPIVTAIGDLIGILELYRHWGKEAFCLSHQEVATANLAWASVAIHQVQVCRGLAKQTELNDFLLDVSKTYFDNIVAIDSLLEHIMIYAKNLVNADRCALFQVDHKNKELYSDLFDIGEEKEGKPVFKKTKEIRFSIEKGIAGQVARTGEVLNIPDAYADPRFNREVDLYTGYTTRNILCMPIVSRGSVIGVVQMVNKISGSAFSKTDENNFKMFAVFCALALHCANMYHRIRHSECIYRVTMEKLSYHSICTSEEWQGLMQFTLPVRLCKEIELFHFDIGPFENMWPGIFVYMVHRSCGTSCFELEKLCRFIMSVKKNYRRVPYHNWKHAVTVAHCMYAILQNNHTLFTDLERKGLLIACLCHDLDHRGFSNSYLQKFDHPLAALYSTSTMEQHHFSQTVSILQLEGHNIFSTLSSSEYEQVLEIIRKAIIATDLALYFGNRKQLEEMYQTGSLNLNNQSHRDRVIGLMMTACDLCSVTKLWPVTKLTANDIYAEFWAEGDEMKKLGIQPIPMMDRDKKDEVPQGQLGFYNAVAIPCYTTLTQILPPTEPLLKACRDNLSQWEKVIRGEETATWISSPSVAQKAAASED
Procedure, shortened: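 Hydrolysis of 3H-cAMP (60 nM cAMP, 0.008 μCi tracer) proceeded for 60 min at room temperature, with the product detected by SPA bead scintillation counting. The enzyme was hPDE10A from baculovirus-infected Sf9 cells in Tris pH 7.8 buffer with MgCl2 and EGTA, and compounds were at 1% DMSO final. Blanks lacked enzyme.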

[4] = target: T4, PDE2A (Rattus norvegicus, UniProt Q01062); assay: PDE2 occupancy by test compounds, ex-vivo autoradiography with [3H]B-17a; assay type: in vivo, Male Wistar rats; conditions: for ED50: drug dose producing 50% receptor occupancy, read-out: PDE Occupancy ED50; for receptor occupancy at 10 mg/kg: percentage receptor occupancy, ex-vivo autoradiography, striatum
T4 construct: Twenty μm-thick striatal sections were cut; from tissue; host or cells: rat brain, striatal sections
T4 sequence (Q01062 1-928): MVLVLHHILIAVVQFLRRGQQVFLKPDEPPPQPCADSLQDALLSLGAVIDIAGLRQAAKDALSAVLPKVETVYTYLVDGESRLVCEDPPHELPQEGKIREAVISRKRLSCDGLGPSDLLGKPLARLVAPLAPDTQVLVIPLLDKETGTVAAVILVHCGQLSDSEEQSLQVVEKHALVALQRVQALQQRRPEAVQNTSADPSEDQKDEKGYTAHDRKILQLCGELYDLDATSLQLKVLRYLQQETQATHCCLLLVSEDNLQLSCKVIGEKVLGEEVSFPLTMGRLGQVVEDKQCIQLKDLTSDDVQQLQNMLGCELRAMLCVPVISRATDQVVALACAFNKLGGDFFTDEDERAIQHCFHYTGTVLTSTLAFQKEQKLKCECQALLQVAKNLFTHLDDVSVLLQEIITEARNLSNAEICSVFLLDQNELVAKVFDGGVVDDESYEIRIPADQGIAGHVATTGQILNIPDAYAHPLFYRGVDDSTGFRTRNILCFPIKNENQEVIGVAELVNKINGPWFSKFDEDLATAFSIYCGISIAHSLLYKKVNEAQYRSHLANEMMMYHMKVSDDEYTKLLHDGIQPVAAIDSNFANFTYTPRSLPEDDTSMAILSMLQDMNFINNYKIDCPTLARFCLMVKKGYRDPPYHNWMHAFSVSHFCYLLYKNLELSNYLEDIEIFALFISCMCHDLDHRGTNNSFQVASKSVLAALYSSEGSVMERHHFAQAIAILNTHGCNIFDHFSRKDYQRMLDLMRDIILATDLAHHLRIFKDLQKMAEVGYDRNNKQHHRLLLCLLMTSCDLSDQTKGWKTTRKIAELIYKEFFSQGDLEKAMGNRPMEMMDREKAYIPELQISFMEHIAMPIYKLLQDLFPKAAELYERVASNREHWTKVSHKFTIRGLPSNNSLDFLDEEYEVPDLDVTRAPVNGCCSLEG

[5] = human recombinant PDE2A, 10 μM cGMP substrate, read-out: hPDE2A pIC50 (converted)
[6] = read-out: hPDE2A pIC50 (converted)
[7] = hPDE2A pIC50, human recombinant PDE2A, 10 μM cGMP substrate

Compound	IC50 [1, 5]	Emax ([1]; human recombinant PDE2A)	Emax [1]	IC50 [1, 6]	IC50 [2]	Emax [2]	hPDE10A2 Emax [3]	Emax [3]	IC50 [3]	ED50 ([4]; route PO (oral))	receptor occupancy at 10 mg/kg ([4]; sc, route SC (subcutaneous))	receptor occupancy at 10 mg/kg ([4]; po, route PO (oral))	IC50 ([1]; hPDE2A pIC50)	IC50 [1, 7]
Cc1cc(C(=O)N2CC[C@@H](C)[C@H](c3cc(C(F)F)nc4ncnn34)C2)c(F)c(C)n1 [Compound 70]	1.74 nM	102%	102%	1.95 nM	5130 nM	66%	95	93%	331 nM and 380 nM	6.4 mg/kg	65%	–	–	–
C[C@@H]1CCN(C(=O)c2cc(Cl)nc(Cl)c2F)C[C@H]1c1cc(C(F)F)nc2ncnn12 [Compound 71]	1.86 nM	98%	98%	1.86 nM	> 1000 nM	32%	–	94%	339 nM	–	49%	–	–	–
COc1ncc(C(=O)N2CC[C@@H](C)[C@H](c3cc(C(F)F)nc4ncnn34)C2)cc1C1CC1 [Compound 73]	1.95 nM	101%	101%	1.95 nM	2630 nM	83%	–	98%	219 nM	–	–	0%	–	–
COc1c(C)cc(C(=O)N2CC[C@@H](C)[C@](F)(c3cc(C(F)F)nc4ncnn34)C2)cc1C [Compound 74]	30.2 nM	101%	101%	30.2 nM	> 10000 nM	30%	–	36%	> 10000 nM	–	14%	–	–	–
Cc1cc(C(=O)N2CC[C@@H](C)[C@H](c3cc(C(F)F)nc4ncnn34)C2)cc(C)c1Cl [Compound 76]	–	–	99%	–	1230 nM	91%	–	101%	31.6 nM	–	–	17%	0.229 nM	0.229 nM
Cc1cc(C(=O)N2CC[C@@H](C)[C@H](c3cc(C(F)F)nc4ncnn34)C2)cc(C)c1C#N [Compound 78]	–	–	102%	–	1580 nM	87%	–	98%	105 nM	–	77%	–	1 nM	1 nM
CCc1cc(C(=O)N2CC[C@@H](C)[C@H](c3cc(C(F)F)nc4ncnn34)C2)cc(C)n1 [Compound 80]	0.794 nM	100%	100%	0.794 nM	4170 nM	71%	–	98%	81.3 nM	8.63 mg/kg	52%	–	–	–
Cc1cc(C(=O)N2CC[C@@H](C)[C@](F)(c3cc(C(F)F)nc4ncnn34)C2)cc(C)n1 [Compound 82]	33.9 nM	101%	101%	33.9 nM	> 10000 nM	9%	–	18%	> 10000 nM	–	–	28%	–	–
Cc1cc(C(=O)N2CC[C@@H](C)[C@H](c3cc(C(F)F)nc4ncnn34)C2)cc(Cl)n1 [Compound 83]	–	–	100%	–	7940 nM	58%	–	98%	97.7 nM	–	–	82%	0.933 nM	0.933 nM
Cc1cc(C(=O)N2CC[C@@H](C)[C@H](c3cc(C(F)F)nc4ncnn34)C2)c(F)cn1 [Compound 84]	3.16 nM	101%	101%	3.16 nM	7410 nM	30%	–	89%	708 nM	14.1 mg/kg	–	45%	–	–
Cc1ccc(C(=O)N2CC[C@@H](C)[C@H](c3cc(C(F)F)nc4ncnn34)C2)nc1C [Compound 85]	6.46 nM	100%	100%	6.46 nM	7760 nM	37%	–	88%	1200 nM	–	1%	–	–	–
C[C@@H]1CCN(C(=O)c2ccn3cccc3c2)C[C@H]1c1cc(C(F)F)nc2ncnn12 [Compound 90]	0.355 nM	101%	101%	0.355 nM	214 nM	98%	–	102%	19.5 nM	–	73%	–	–	–
C[C@@H]1CCN(C(=O)c2cc(OC(F)F)cc(C3CC3)c2)C[C@H]1c1cc(C(F)F)nc2ncnn12 [Compound 91]	0.372 nM	100%	100%	0.372 nM	708 nM	61%	–	94%	22.4 nM	–	–	-7%	–	–
C[C@@H]1CCN(C(=O)c2ccc3c(c2)OCCC3)C[C@H]1c1cc(C(F)F)nc2ncnn12 [Compound 96]	0.55 nM	100%	100%	0.55 nM	398 nM	73%	–	95%	33.1 nM	–	–	1%	–	–
Cc1cc([C@@H]2CN(C(=O)c3ccc4nccn4c3)CC[C@H]2C)n2ncnc2n1 [Compound 99]	0.603 nM	100%	100%	0.603 nM	2090 nM	87%	–	100%	9.55 nM	–	–	1%	–	–
Cc1cc(C(=O)N2CC[C@@H](C)[C@H](c3cc(C(F)F)nc4ncnn34)C2)cc(C(C)C)n1 [Compound 101]	0.661 nM	101%	101%	0.661 nM	4790 nM	70%	–	98%	57.5 nM	–	43%	–	–	–
C[C@@H]1CCN(C(=O)c2ccc(C3CC3)c(F)c2)C[C@H]1c1cc(C(F)F)nc2ncnn12 [Compound 103]	0.708 nM	99%	99%	0.708 nM	87.1 nM	100%	–	100%	18.2 nM	–	42%	–	–	–
Cc1cc(C(=O)N2CC[C@@H](C)[C@H](c3cc(C(F)F)nc4ncnn34)C2)cc(OC(C)C)n1 [Compound 107]	0.912 nM	100%	100%	0.912 nM	4170 nM	61%	–	99%	81.3 nM	–	–	29%	–	–
Cc1cc([C@@H]2CN(C(=O)c3cc(C)c(Cl)c(C)c3)CC[C@H]2C)n2ncnc2n1 [Compound 109]	–	–	101%	–	457 nM	98%	–	99%	6.61 nM	–	–	43%	0.933 nM	0.933 nM
Cc1cc(C(=O)N2CC[C@@H](C)[C@H](c3cc(C(F)F)nc4ncnn34)C2)cc(C)c1F [Compound 115]	–	–	100%	–	1950 nM	87%	–	99%	77.6 nM	–	–	23%	1.05 nM	1.05 nM
Cc1cc([C@@H]2CN(C(=O)c3cc(C)c(F)c(C)c3)CC[C@H]2C)n2ncnc2n1 [Compound 117]	–	–	100%	–	851 nM	97%	–	99%	9.77 nM	–	–	8%	1.15 nM	–

Source: patent US10947242B2, “[1,2,4]triazolo[1,5and#8208;A]pyrimidine compounds as PDE2 inhibitors” (Janssen Pharmaceutica NV, priority 2016, dated 2021)
